From patent publication US20100267952A1, “USE OF NOVEL COMPOUND HAVING AFFINITY FOR AMYLOID, AND PROCESS FOR PRODUCTION OF THE SAME” (NIHON MEDI-PHYSICS CO., LTD., priority 2007, published 2010)

Experiments:
[1] = [11C]-labeled, rats; cited from earlier work
[2] = Transferability into brain and clearance (2); type: in vivo, male Wistar rats; conditions: rats, intravenous injection, Table 1-10
Protocol: 0.05 mL each of these solutions was injected under thiopental anesthesia into the tail vein of respective Wistar rats (7-week old). The rats were sacrificed by bleeding from abdominal artery, and brains were removed and subjected to measurement of mass of brains and further subjected to measurement of radioactivity (hereinafter referred to as A in this Example) with a single channel analyzer (detector type: SP-20 manufactured by OHYO KOKEN KOGYO Co., Ltd.) 2, 5, 30 and 60 minutes after the injection. Also, radioactivity (hereinafter referred to as B in this Example) of the rest of the whole body was measured in the same manner as above. Using these measurement results, radioactive distribution per unit weight of brain (% ID/g) at the respective time points were calculated in accordance with the following formula (1-7).
Three animals were used for experiment at the respective time points.

[3] = target: T1, amyloid (aggregated Aβ1-42) injected into amygdaloid nucleus (Homo sapiens, UniProt P05067); test: Confirmation of imaging of amyloid in brain (autoradiogram of brain slice, Aβ1-42 injected rat); type: in vivo, male Wistar rat; conditions: tail vein, 11-15 MBq equivalent, brain removed 60 minutes after injection
T1 construct: Aβ1-42 (Wako) was dissolved in phosphate buffer (pH 7.4); purchased Wako
T1 sequence (P05067 672-713): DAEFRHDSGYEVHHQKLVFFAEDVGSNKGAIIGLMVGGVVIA
Protocol: (1) Aβ1-42 (Wako) was dissolved in phosphate buffer (pH 7.4) and shaken at 37° C. for 72 hours, to obtain a 1 mg/mL suspension of aggregated Aβ (hereinafter referred to as amyloid suspension in this Example).
(2) 2.5 μL (corresponding to 25 μg) of the amyloid suspension was injected into an amygdaloid nucleus on one side of a male Wistar rat (7-week old). As a control, 2.5 μL of a phosphate buffered physiological saline solution (pH 7.4) was injected into an amygdaloid nucleus on the other side of the rat. The rats were examined 1 day after the injection of the amyloid suspension and the phosphate buffered physiological saline solution (pH 7.4).
This solution was injected under thiopental anesthesia into the rat through the tail vein (dosage: 0.5 mL, dosed radioactivity: 11-15 MBq equivalent).
(4) Brain was removed 60 minutes after the injection to prepare a brain slice of 10 μm in thickness with a microtome (type: CM3050S, manufactured by LEICA). The brain slice was exposed to an imaging plate for 20 hours, and then image analysis was carried out by use of a Bio-imaging Analyzer (type: BAS-2500; manufactured by FUJIFILM Corporation).

[4] = Radioactive distribution ratio in each organ; type: in vivo, SD rat
Protocol: 0.2 mL each of the prepared sample solution was administered under non-thiopental anesthesia into the tail vein of the above rat. The rats were sacrificed by bleeding from abdominal artery, and each organ shown in Table 3 was removed 5, 30, 60 and 180 minutes after the administration. […] Also, radioactivity of the whole body of the rat after removal of the organs (hereinafter referred to as rest of the whole body) was measured. Using these measurement results, radioactive distribution per unit weight of each organ (% ID/g) at the respective time points was calculated in accordance with the following formula (3).
Three animals were used for the experiment at the respective time points.
R^T: Radioactivity of target organ (cpm) R^S: Sum of radioactivity of all the organs (cpm) R^R: Radioactivity of the rest of the whole body (cpm) M^T: Mass of target organ (g)

[5] = SD rat, tail vein, 5 min. after administration
[6] = SD rat, tail vein, 30 min. after administration
[7] = SD rat, tail vein, 60 min. after administration
[8] = SD rat, tail vein, 180 min. after administration

CNc1ccc(/C=C/c2ccc(O)cc2)cc1 [SB-13, (E)-4-methylamino-4′-hydroxystilbene]
clearance from normal tissues [1]: it cannot be said that the clearance is sufficiently fast

FCCOc1ccc(-c2cn3cc([123I])ccc3n2)cc1 [Compound I-9, 2-[4′-(2″-fluoroethoxy)phenyl]-6-[^123I]iodoimidazo[1,2-a]pyridine]
Radioactive distribution per unit weight in brain, After 2 min. ([2]; 2 min.): 0.72 % ID/g | Radioactive distribution per unit weight in brain, After 5 min. ([2]; 5 min.): 0.49 % ID/g | Radioactive distribution per unit weight in brain, After 30 min. ([2]; 30 min.): 0.07 % ID/g | Radioactive distribution per unit weight in brain, After 60 min. ([2]; 60 min.): 0.02 % ID/g | accumulation of radioactivity in amygdaloid nucleus on the amyloid-injected side (autoradiogram) [3]: marked accumulation of radioactivity | excretion / clearance to the outside of the body ([4]; SD rat, tail vein): biliary-excreted rapidly after the administration | Radioactive distribution per unit weight, Adrenal gland, Average [4, 5]: 3.914 % ID/g | Radioactive distribution per unit weight, Adrenal gland, Average [4, 6]: 0.457 % ID/g | Radioactive distribution per unit weight, Adrenal gland, Average [4, 7]: 0.260 % ID/g | Radioactive distribution per unit weight, Adrenal gland, Average [4, 8]: 0.017 % ID/g | Radioactive distribution per unit weight, Blood, Average [4, 5]: 0.370 % ID/g | Radioactive distribution per unit weight, Blood, Average [4, 6]: 0.142 % ID/g | Radioactive distribution per unit weight, Blood, Average [4, 7]: 0.108 % ID/g | Radioactive distribution per unit weight, Blood, Average [4, 8]: 0.074 % ID/g | Radioactive distribution per unit weight, Bone, Average [4, 5]: 0.187 % ID/g | Radioactive distribution per unit weight, Bone, Average [4, 6]: 0.067 % ID/g | Radioactive distribution per unit weight, Bone, Average [4, 7]: 0.045 % ID/g | Radioactive distribution per unit weight, Bone, Average [4, 8]: 0.032 % ID/g | Radioactive distribution per unit weight, Brain, Average [4, 5]: 0.701 % ID/g | Radioactive distribution per unit weight, Brain, Average [4, 6]: 0.067 % ID/g | Radioactive distribution per unit weight, Brain, Average [4, 7]: 0.026 % ID/g | Radioactive distribution per unit weight, Brain, Average [4, 8]: 0.007 % ID/g | Radioactive distribution per unit weight, Heart, Average [4, 5]: 0.551 % ID/g | Radioactive distribution per unit weight, Heart, Average [4, 6]: 0.111 % ID/g | Radioactive distribution per unit weight, Heart, Average [4, 7]: 0.059 % ID/g | Radioactive distribution per unit weight, Heart, Average [4, 8]: 0.030 % ID/g | Radioactive distribution per unit weight, Kidney, Average [4, 5]: 1.114 % ID/g | Radioactive distribution per unit weight, Kidney, Average [4, 6]: 0.560 % ID/g | Radioactive distribution per unit weight, Kidney, Average [4, 7]: 0.302 % ID/g | Radioactive distribution per unit weight, Kidney, Average [4, 8]: 0.108 % ID/g | Radioactive distribution per unit weight, Large intestine, Average [4, 5]: 0.106 % ID/g | Radioactive distribution per unit weight, Large intestine, Average [4, 6]: 0.070 % ID/g | Radioactive distribution per unit weight, Large intestine, Average [4, 7]: 0.074 % ID/g | Radioactive distribution per unit weight, Large intestine, Average [4, 8]: 5.241 % ID/g | Radioactive distribution per unit weight, Liver, Average [4, 5]: 2.399 % ID/g | Radioactive distribution per unit weight, Liver, Average [4, 6]: 0.337 % ID/g | Radioactive distribution per unit weight, Liver, Average [4, 7]: 0.178 % ID/g | Radioactive distribution per unit weight, Liver, Average [4, 8]: 0.067 % ID/g | Radioactive distribution per unit weight, Lung, Average [4, 5]: 0.647 % ID/g | Radioactive distribution per unit weight, Lung, Average [4, 6]: 0.192 % ID/g | Radioactive distribution per unit weight, Lung, Average [4, 7]: 0.130 % ID/g | Radioactive distribution per unit weight, Lung, Average [4, 8]: 0.074 % ID/g | Radioactive distribution per unit weight, Marrow, Average [4, 5]: 0.815 % ID/g | Radioactive distribution per unit weight, Marrow, Average [4, 6]: 0.075 % ID/g | Radioactive distribution per unit weight, Marrow, Average [4, 7]: 0.000 % ID/g | Radioactive distribution per unit weight, Marrow, Average [4, 8]: 0.000 % ID/g | Radioactive distribution per unit weight, Muscle, Average [4, 5]: 0.239 % ID/g | Radioactive distribution per unit weight, Muscle, Average [4, 6]: 0.052 % ID/g | Radioactive distribution per unit weight, Muscle, Average [4, 7]: 0.031 % ID/g | Radioactive distribution per unit weight, Muscle, Average [4, 8]: 0.016 % ID/g | Radioactive distribution per unit weight, Pancreas, Average [4, 5]: 0.650 % ID/g | Radioactive distribution per unit weight, Pancreas, Average [4, 6]: 0.236 % ID/g | Radioactive distribution per unit weight, Pancreas, Average [4, 7]: 0.115 % ID/g | Radioactive distribution per unit weight, Pancreas, Average [4, 8]: 0.073 % ID/g | Radioactive distribution per unit weight, Small intestine, Average [4, 5]: 1.259 % ID/g | Radioactive distribution per unit weight, Small intestine, Average [4, 6]: 6.598 % ID/g | Radioactive distribution per unit weight, Small intestine, Average [4, 7]: 8.235 % ID/g | Radioactive distribution per unit weight, Small intestine, Average [4, 8]: 2.657 % ID/g | Radioactive distribution per unit weight, Spleen, Average [4, 5]: 0.442 % ID/g | Radioactive distribution per unit weight, Spleen, Average [4, 6]: 0.092 % ID/g | Radioactive distribution per unit weight, Spleen, Average [4, 7]: 0.069 % ID/g | Radioactive distribution per unit weight, Spleen, Average [4, 8]: 0.037 % ID/g | Radioactive distribution per unit weight, Stomach, Average [4, 5]: 0.287 % ID/g | Radioactive distribution per unit weight, Stomach, Average [4, 6]: 0.619 % ID/g | Radioactive distribution per unit weight, Stomach, Average [4, 7]: 0.672 % ID/g | Radioactive distribution per unit weight, Stomach, Average [4, 8]: 0.812 % ID/g | ratio (% ID/g at 5 minutes after the administration)/(% ID/g at 180 minutes after the administration) ([4]; bone): 6 | ratio (% ID/g at 5 minutes after the administration)/(% ID/g at 180 minutes after the administration) ([4]; brain): 94 | ratio (% ID/g at 5 minutes after the administration)/(% ID/g at 180 minutes after the administration) ([4]; heart): 18 | ratio (% ID/g at 5 minutes after the administration)/(% ID/g at 180 minutes after the administration) ([4]; lung): 9 | ratio (% ID/g at 5 minutes after the administration)/(% ID/g at 180 minutes after the administration) ([4]; pancreas): 9
